According to PMC7270141 (International Journal for Parasitology: Drugs and Drug …, 2020):
Read-outs that look alike come from different tables or passages of the source.

Columns and labels:
[1] = system: P. falciparum multidrug-resistant W2 strain; assay: SYBR Green I fluorescence assay, asexual parasite proliferation, W2 strain; assay type: cell-based; conditions: for Resistance Index (RI) = IC50 for W2/IC50 for NF54: W2 vs NF54
[2] = system: HepG2 cells; assay: Lactate dehydrogenase; conditions: for Selectivity Index (SI) = EC50 for HepG2/IC50 for NF54: HepG2 vs NF54
[3] = system: P. berghei; conditions: murine P. berghei, after a single oral dose; ref François et al., 1997c; cited from earlier work
[4] = Single-point metabolic stability, human liver microsomes; assay type: in vitro ADME
[5] = Single-point metabolic stability, mouse liver microsomes; assay type: in vitro ADME
[6] = Solubility, miniaturised shake-flask method; assay type: physicochemical; conditions: PBS pH 6.5, 24 h at 25 °C, HPLC-DAD, unit from abstract
[7] = Single-point metabolic stability, rat liver microsomes; assay type: in vitro ADME
[8] = Lactate dehydrogenase; conditions: human, Cytotoxicity EC50, HepG2, HepG2, LDH leakage, mean ± SEM, n ≥ 2
[9] = Plasmodium falciparum, W2, 96 h, read-out: Inhibition of parasite proliferation IC50, W2, multidrug-resistant W2, 96 h drug pressure, mean ± SEM, n ≥ 2

SMILES | Resistance Index (RI) = IC50 for W2/IC50 for NF54 [1] | IC50 ([1]; read-out: Inhibition of parasite proliferation IC50, W2, multidrug-resistant W2, 96 h drug pressure, mean ± SEM, n ≥ 2) | Selectivity Index (SI) = EC50 for HepG2/IC50 for NF54 [2] | EC50 ([2]; read-out: Cytotoxicity EC50, HepG2, HepG2, LDH leakage, mean ± SEM, n ≥ 2) | Parasitaemia decreased [3] | % Remaining after 30 min, Human ([4]; 1 μM, human liver microsomes 0.4 mg/ml, 30 min, 37 °C) | Microsomal clearance, Human ([4]; in vitro intrinsic clearance, human liver microsomes) | % Remaining after 30 min, Mouse ([5]; 1 μM, mouse liver microsomes 0.4 mg/ml, 30 min, 37 °C) | Microsomal clearance, Mouse ([5]; in vitro intrinsic clearance, mouse liver microsomes) | Solubility PBS (pH 6.5) [6] | % Remaining after 30 min, Rat ([7]; 1 μM, rat liver microsomes 0.4 mg/ml, 30 min, 37 °C) | Microsomal clearance, Rat ([7]; in vitro intrinsic clearance, rat liver microsomes) | IC50 [1, 9] | EC50 [8] | remaining at 0.5 h, 1 μM ([4]; both, human, liver microsomes, % Remaining after 30 min, Human, 1 μM, human liver microsomes 0.4 mg/ml, 30 min, 37 °C) | remaining at 0.5 h, 1 μM ([5]; male, CD1, mouse, liver microsomes, % Remaining after 30 min, Mouse, 1 μM, mouse liver microsomes 0.4 mg/ml, 30 min, 37 °C) | remaining at 0.5 h, 1 μM ([7]; male, IGS, rat, liver microsomes, % Remaining after 30 min, Rat, 1 μM, rat liver microsomes 0.4 mg/ml, 30 min, 37 °C)
COc1cc(C)c(-c2ccc(O)c3c2C[C@@H](C)N[C@@H]3C)c2cccc(O)c12 (single isomer, unassigned) [Dioncophylline C (2a), dioncophylline C] | 2.9 | 0.112 ± 0.01 µM | 552.6 | 21.2 ± 4 µM | 99.6% | 94% | <11.6 µL/min/mg | 95% | <11.6 µL/min/mg | 170 μM | 95% | <11.6 µL/min/mg | – | – | – | – | –
CCN(CC)CCCC(C)Nc1ccnc2cc(Cl)ccc12 (centres unmarked) [Chloroquine, reference compound] | 29.5 | – | 2855.4 | – | – | – | – | – | – | – | – | – | 0.382 ± 0.09 µM | 37 ± 4.5 µM | – | – | –
COc1cc(CO)c(-c2ccc3c(c2O)[C@@H](C)N[C@H](C)C3)c2cccc(O)c12 [Dioncopeltine A (5), dioncopeltine A] | 38.1 | – | 4890.8 | – | – | – | – | – | – | – | – | – | 0.304 ± 0.06 µM | 39 ± 13.1 µM | 98% | < 7% | > 99%
